SMILES strings stand for the structures.

For one molecule, ring closure, yield of all isomers results are on record in patent publication EP1058679B1.

For this series the following is noted: from CC[Si](CC)(CC)O[C@@H](CC(=O)O)C(C)(C)C(=O)[C@H](C)[C@@H](OC(=O)OCC(Cl)(Cl)Cl)[C@@H](C)CCC/C(C)=C\C[C@H](O)/C(C)=C/c1csc(C)n1; ester bond; 2,4,6-trichlorobenzoyl chloride, Et3N, DMAP; toluene; 0.79 mM; 25.0 °C; 3.5 h.

With `CC[Si](CC)(CC)O[C@H]1CC(=O)O[C@H](/C(C)=C/c2csc(C)n2)C/C=C(/C)CCC[C@H](C)[C@H](OC(=O)OCC(Cl)(Cl)Cl)[C@@H](C)C(=O)C1(C)C`, the ring closure, yield of all isomers came to 78%.
